Laboratory results from US4129737A, “Process for the preparation of an 8-alkyl-5-oxo-5,8-dihydro-pyrido(2,3-d)pyrimidine-6-carboxylic acid” (priority 1972, dated 1978).
Converted amounts (≈) assume the structure as drawn. Where two headings read alike, the source gives them in different places.

What was measured:
Staphylococcus 209 P = experiment: Minimum inhibitory concentration by agar dilution, Staphylococcus 209 P; type: cell-based; settings: Staphylococcus, 37° C., 18 hours, read-out: minimum inhibitory concentration (M.I.C.)
Streptococcus = experiment: Minimum inhibitory concentration by agar dilution, Streptococcus Group A; type: cell-based; settings: 37° C., 18 hours, read-out: minimum inhibitory concentration (M.I.C.)
B. subtilis = experiment: Minimum inhibitory concentration by agar dilution, B. subtilis; type: cell-based; settings: Bacillus subtilis, 37° C., 18 hours, read-out: minimum inhibitory concentration (M.I.C.)
Bord. bronchiseptica = experiment: Minimum inhibitory concentration by agar dilution, Bord. bronchiseptica; type: cell-based; settings: Bordetella bronchiseptica, 37° C., 18 hours, read-out: minimum inhibitory concentration (M.I.C.)
B. pyocyaneus TUR = experiment: Minimum inhibitory concentration by agar dilution, B. pyocyaneus TUR; type: cell-based; settings: Pseudomonas aeruginosa, 37° C., 18 hours
Esch. Coli 95 = experiment: Minimum inhibitory concentration by agar dilution, Esch. Coli 95; type: cell-based; settings: Escherichia coli, 37° C., 18 hours, read-out: minimum inhibitory concentration (M.I.C.)
Klebs. pneumoniae = experiment: Minimum inhibitory concentration by agar dilution, Klebs. pneumoniae; type: cell-based; settings: Klebsiella pneumoniae, 37° C., 18 hours, read-out: minimum inhibitory concentration (M.I.C.)
Sh. sonnei = experiment: Minimum inhibitory concentration by agar dilution, Sh. sonnei; type: cell-based; settings: Shigella sonnei, 37° C., 18 hours, read-out: minimum inhibitory concentration (M.I.C.)
Pr. mirabilis = experiment: Minimum inhibitory concentration by agar dilution, Pr. mirabilis; type: cell-based; settings: Proteus mirabilis, 37° C., 18 hours, read-out: minimum inhibitory concentration (M.I.C.)
Salm. typhi 0901 = experiment: Average MIC, solid medium (nutrient agar) dilution method; type: cell-based; settings: Salmonella enterica, 18 h, read-out: minimum inhibitory concentration, average
[1] = tested on: Gram-negative microorganisms; experiment: In vitro anti-microbial activity on agar media, overall; type: cell-based
Experimental: The products were tested on three Gram positive microorganisms (1 to 3) […] and on 10 Gram negative microorganisms (4 to 13).

mice = experiment: Oral toxicity in mice; type: in vivo; settings: doses as high as 4 g per kilogram
dog = settings: in vivo, 100 mg/kg/day
[2] = Absorption and elimination after oral administration; type: in vivo
in vivo = settings: dog, 2.5 mg/kg
Experimental: In an experiment involving a 20 kg dog, 50 mg of the compound of Example VIII, corresponding to 2.5 mg/kg, were administered by means of a probang. The urine of the animal was removed by catheterisation at the 3rd and at the 7th hour, and the anti-bacterial activity of these samples was measured, taking the compound administered as the reference product.

[3] = Toxicity, overall statement; settings: in vivo
Staphylococcus 209P = experiment: Average MIC, solid medium (nutrient agar) dilution method; settings: 18 h, read-out: minimum inhibitory concentration, average
Staphylococcus SIM = experiment: as above; settings: 18 h, read-out: minimum inhibitory concentration, average
Streptococcus A561 = experiment: as above; settings: A561, 18 h, read-out: minimum inhibitory concentration, average
B. subtilis 6633 = experiment: as above; settings: Bacillus subtilis, 6633, 18 h, read-out: minimum inhibitory concentration, average
Ps. aeruginosa A22 = experiment: as above; settings: Pseudomonas aeruginosa, A22, 18 h, read-out: minimum inhibitory concentration, average
Esch. coli. 54-127 OMS = experiment: as above; settings: Escherichia coli, 18 h, read-out: minimum inhibitory concentration, average
Klebs. pneumoniae 10.031 = experiment: as above; settings: Klebsiella pneumoniae, 10.031, 18 h, read-out: minimum inhibitory concentration, average
S. enteritidis DANYZ = experiment: as above; settings: Salmonella enterica, 18 h, read-out: minimum inhibitory concentration, average
S. oranienburg 10-66 = experiment: as above; settings: Salmonella enterica, 1066, 18 h, read-out: minimum inhibitory concentration, average
Pr. vulgaris 12-53 = experiment: as above; settings: Proteus vulgaris, 1253, 18 h, read-out: minimum inhibitory concentration, average
[4] = N.A. (nutrient agar, pH 6.8), Table I
[5] = T.S.A. (trypticase soya medium, pH 7.3)

Structure (SMILES): CCn1cc(C(=O)O)c(=O)c2cnc(N3CCNCC3)nc21 [Example VIII, 2-Piperazino-5-oxo-8-ethyl-5,8-dihydro-pyrido(2,3-d)pyrimidine-6-carboxylicacid]
- MIC (Staphylococcus 209 P; [4]): 12.5 µg/mL (≈ 41.2 µM)
- MIC (Staphylococcus 209 P; [5]): 12.5 µg/mL (≈ 41.2 µM)
- MIC (Streptococcus; [4]): 25 µg/mL (≈ 82.4 µM)
- MIC (Streptococcus; [5]): 25 µg/mL (≈ 82.4 µM)
- MIC (B. subtilis; [4]): 3.1 µg/mL (≈ 10.2 µM)
- MIC (B. subtilis; [5]): 6.2 µg/mL (≈ 20.4 µM)
- MIC (Bord. bronchiseptica; [4]): 12.5 µg/mL (≈ 41.2 µM)
- MIC (Bord. bronchiseptica; [5]): 50 µg/mL (≈ 165 µM)
- MIC (B. pyocyaneus TUR; [4]): 25 µg/mL (≈ 82.4 µM)
- MIC (B. pyocyaneus TUR; T.S.A. (trypticase soya medium, pH 7.3), read-out: minimum inhibitory concentration (M.I.C.)): > 100 µg/mL
- MIC (Esch. Coli 95; [4]): 0.8 µg/mL (≈ 2.64 µM)
- MIC (Esch. Coli 95; [5]): 0.8 µg/mL (≈ 2.64 µM)
- MIC (Klebs. pneumoniae; [4]): 0.8 µg/mL (≈ 2.64 µM)
- MIC (Klebs. pneumoniae; [5]): 1.6 µg/mL (≈ 5.27 µM)
- MIC (Sh. sonnei; [4]): 0.8 µg/mL (≈ 2.64 µM)
- MIC (Sh. sonnei; [5]): 0.8 µg/mL (≈ 2.64 µM)
- MIC (Pr. mirabilis; [4]): 0.8 µg/mL (≈ 2.64 µM)
- MIC (Pr. mirabilis; [5]): 0.8 µg/mL (≈ 2.64 µM)
- MIC (Salm. typhi 0901): 2.06 µg/mL (≈ 6.79 µM)
- activity against Gram-negative microorganisms ([1]; in vitro): particularly active against Gram-negative microorganisms
- activity compared with nalidixic acid and the acid of Example III ([1]; majority of the Gram negative microorganisms, Table III): more active on the majority of the Gram negative microorganisms than the 2 other substances
- deaths (mice): no deaths were observed
- toxic signs (dog): without showing any toxic signs
- absorption [2]: absorbed rapidly
- elimination [2]: eliminated principally in the urine
- urinary concentrations relative to minimum inhibitory concentrations ([2]; even with low doses, majority of Gram negative microorganisms): very much greater than the minimum inhibitory concentrations
- urinary concentration at 7 hours relative to minimum inhibitory concentrations (in vivo): still very much greater than the minimum inhibitory concentrations
- concentration at 3 h (in vivo; po): 185 µg/mL
- concentration at 7 h (in vivo; po): 90 µg/mL
- toxicity [3]: very low toxicity
- MIC (Staphylococcus 209P): 6.22 µg/mL (≈ 20.5 µM)
- MIC (Staphylococcus SIM): 12.5 µg/mL (≈ 41.1 µM)
- MIC (Streptococcus A561): 13.7 µg/mL (≈ 45.3 µM)
- MIC (B. subtilis 6633): 8.1 µg/mL (≈ 26.7 µM)
- MIC (Ps. aeruginosa A22): 12.5 µg/mL (≈ 41.2 µM)
- MIC (Esch. coli. 54-127 OMS): 5.66 µg/mL (≈ 18.7 µM)
- MIC (Klebs. pneumoniae 10.031): 1.88 µg/mL (≈ 6.2 µM)
- MIC (S. enteritidis DANYZ): 1.2 µg/mL (≈ 3.96 µM)
- MIC (S. oranienburg 10-66): 27.5 µg/mL (≈ 90.7 µM)
- MIC (Pr. vulgaris 12-53): 0.36 µg/mL (≈ 1.19 µM)
